{"source": "patent US6436435B1", "about": "“Liposome formulation of 5 β steroids” (Super Gen, Inc., priority 1995, dated 2002)", "origin": "cited, not measured here", "molecules": {"B1": {"name": "OB protein: protein product of the recombinant gene ob in mice and its human homologue (protein, UniProt P41160 22-167, looked up)", "Leptin": "VPIQKVQDDTKTLIKTIVTRINDISHTQSVSAKQRVTGLDFIPGLHPILSLSKMDQTLAVYQQVLTSLPSQNVLQIANDLENLRDLLHLLAFSKSCSLPQTSGLQKPESLDGVLEASLYSTEVVALSRLQGSLQDILQQLDVSPEC"}}, "key": {"[1]": {"system": "severely diabetic mammals", "conditions": "oral administration"}, "[2]": {"system": "genetically obese mice", "conditions": "variety of routes"}, "[3]": {"system": "genetically obese and diabetic mice", "conditions": "maximal benefit when ingested"}, "[4]": {"system": "individuals suffering from Prader-Willi Syndrome", "conditions": "in vivo"}, "[5]": {"system": "C57BL/KsJ-db/db diabetic mice", "conditions": "for effectiveness in preventing development of diabetes relative to DHEA: C57BL/KsJ-db/db diabetic mice; for blood sugar / plasma insulin concentrations: mouse, in vivo"}, "[6]": {"system": "obese mice", "conditions": "injected im, ip or iv / parenteral"}, "[7]": {"system": "diabetic genetically obese mice", "conditions": "supplied in the diet"}, "[8]": {"system": "congenitally obese mice carrying the ob ob mutation"}}}
{"molecule": "C[C@]12CC[C@H](O)CC1=CC[C@@H]1[C@@H]2CC[C@]2(C)C(=O)CC[C@@H]12", "note": "[DHEA, 3-β-hydroxy-androst-5-en-17-one]", "values": [{"measurement": "glucose tolerance", "setting": "[1]", "value": "improved glucose tolerance"}, {"measurement": "hyperglycemia", "setting": "[1]", "value": "restored hyperglycemia to normal levels"}, {"measurement": "rate of weight gain", "setting": "[2]", "value": "decreased the rate of weight gain"}, {"measurement": "development of diabetes", "setting": "[3]", "value": "markedly reduced the development of diabetes"}]}
{"molecule": "C[C@]12CCC(=O)C[C@H]1CC[C@@H]1[C@@H]2CC[C@]2(C)C(=O)CC[C@@H]12", "note": "[ED, 5β-androstane-3,17-dione]", "values": [{"measurement": "subjective or objective side effects", "setting": "oral ED four grams per day", "value": "no significant subjective or objective side effects"}, {"measurement": "weight loss per week per 100 kilograms of body fat", "setting": "oral ED four grams per day", "value": "0.5±0.91 kilograms per week per 100 kilograms of body fat"}, {"measurement": "mean weight loss during ED administration", "setting": "oral ED four grams per day, 10 week period, 14 obese subjects", "value": "2.8±5.5", "unit": "kilograms"}, {"measurement": "mean fat loss, of the initial body fat content", "setting": "over the 10 week period of ED administration", "value": "about 5%"}, {"measurement": "body weight in Prader-Willi Syndrome", "setting": "[4]", "value": "either weight loss or a decrease in the rate of weight gain"}]}
{"molecule": "C[C@]12CC[C@@H](O)C[C@@H]1CC[C@@H]1[C@@H]2CC[C@]2(C)C(=O)CC[C@@H]12", "note": "[androsterone]", "values": [{"measurement": "effectiveness in preventing development of diabetes relative to DHEA", "setting": "[5]", "value": "not"}]}
{"molecule": "C[C@]12CC[C@H](O)C[C@@H]1CC[C@@H]1[C@@H]2CC[C@]2(C)C(=O)CC[C@@H]12", "note": "[epiandrosterone]", "values": [{"measurement": "effectiveness in preventing development of diabetes relative to DHEA", "setting": "[5]", "value": "not"}]}
{"molecule": "C[C@]12CC[C@@H](O)C[C@H]1CC[C@@H]1[C@@H]2CC[C@]2(C)C(=O)CC[C@@H]12", "note": "[etiocholanolone]", "values": [{"measurement": "body weight in Prader-Willi Syndrome", "setting": "[4]", "value": "either weight loss or a decrease in the rate of weight gain"}]}
{"molecule": "C[C@]12CC[C@@H](O)C[C@H]1CC[C@@H]1[C@@H]2CC[C@]2(C)C(=O)CC[C@@H]12", "note": "[α ET, 3α-hydroxy-5β-androstane-17-one]", "values": [{"measurement": "anti-obesity effect, injected", "setting": "[6]", "value": "does not exert an anti-obesity effect"}, {"measurement": "effectiveness in preventing development of diabetes relative to DHEA", "setting": "[5]", "value": "four times more effective than DHEA"}, {"measurement": "blood sugar", "setting": "[5]", "value": "reduce blood sugar"}, {"measurement": "plasma insulin concentrations", "setting": "[5]", "value": "increased plasma insulin concentrations"}, {"measurement": "anti-obesity properties", "setting": "[7]", "value": "can prevent and arrest the development of obesity"}]}
{"molecule": "C[C@]12CC[C@H](O)C[C@H]1CC[C@@H]1[C@@H]2CC[C@]2(C)C(=O)CC[C@@H]12", "note": "[β ET, 3β-hydroxy-5β-androstane-17-one]", "values": [{"measurement": "anti-obesity effect, injected", "setting": "[6]", "value": "does not exert an anti-obesity effect"}, {"measurement": "effectiveness in preventing development of diabetes relative to DHEA", "setting": "[5]", "value": "four times more effective than DHEA"}, {"measurement": "blood sugar", "setting": "[5]", "value": "reduce blood sugar"}, {"measurement": "plasma insulin concentrations", "setting": "[5]", "value": "increased plasma insulin concentrations"}, {"measurement": "anti-obesity properties", "setting": "[7]", "value": "can prevent and arrest the development of obesity"}]}
{"molecule": "B1", "values": [{"measurement": "serum insulin and glucose levels", "setting": "[8]; highest dose tested, 10 mg/kg per day", "value": "normalized to the level typically seen in the non-mutant mice"}, {"measurement": "body weight effect", "setting": "[8]; parenteral administration", "value": "weight reducing effects"}]}
